Measured values as given in the supplement of paper PMC11061612.

Tests used:
Assay in all cases: combination Emax (second highest fraction inhibited in the dose matrix, 72 h); higher = more inhibition; extreme values may be limits of the assay
[1] = test system: COR-L95 (Small Cell Lung Carcinoma)
Method in brief: (§1)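 Bliss excess equals the observed combination effect minus the expected value EA + EB − EA·EB, where EA and EB are the effects of each agent alone. Combination Emax is the second-highest inhibition within the matrix. Inhibition was scaled from CellTiter-Glo 2.0 luminescence, with 0 set by vehicle wells and 1 by blank wells, after 72 hours of two-drug dosing of cells plated in 1536-well plates.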

[2] = test system: DOV13 (Ovarian Carcinoma)
Method in brief: as §1

DSH1 (Bladder Carcinoma) = test system: DSH1 (Bladder Carcinoma)
Method in brief: as §1

ES7 (Ewing's Sarcoma) = test system: ES7 (Ewing's Sarcoma)
Method in brief: as §1

[3] = test system: HT-29 (Colorectal Carcinoma)
Method in brief: as §1

[4] = test system: IHH-4 (Thyroid Gland Carcinoma)
Method in brief: as §1

[5] = test system: KATOIII (Gastric Carcinoma)
Method in brief: as §1

[6] = test system: MDA-MB-157 (Breast Carcinoma)
Method in brief: as §1

[7] = test system: MDA-MB-231 (Breast Carcinoma)
Method in brief: as §1

[8] = test system: MFH-ino (Other Solid Carcinomas)
Method in brief: as §1

[9] = test system: NALM-6 (B-Lymphoblastic Leukemia)
Method in brief: as §1

[10] = test system: NCI-H1299 (Non-Small Cell Lung Carcinoma)
Method in brief: as §1

[11] = test system: SW1088 (Low Grade Glioma)
Method in brief: as §1

[12] = test system: U-266 (Plasma Cell Myeloma)
Method in brief: as §1

Compound | combination Emax [1] | combination Emax [2] | combination Emax (DSH1 (Bladder Carcinoma)) | combination Emax (ES7 (Ewing's Sarcoma)) | combination Emax [3] | combination Emax [4] | combination Emax [5] | combination Emax [6] | combination Emax [7] | combination Emax [8] | combination Emax [9] | combination Emax [10] | combination Emax [11] | combination Emax [12]
CS(=O)(=O)CCNCc1ccc(-c2ccc3ncnc(Nc4ccc(OCc5cccc(F)c5)c(Cl)c4)c3c2)o1 [Lapatinib] + Cn1cnc2c(F)c(Nc3ccc(Br)cc3Cl)c(C(=O)NOCCO)cc21 [Selumetinib] (first compound max 10 µM, 7x7, partner max 10 µM) | 0.207 | 0.357 | 0.802 | 0.559 | 0.958 | 0.563 | 0.523 | 0.262 | 0.631 | 0.462 | 0.847 | 0.338 | 0.349 | 0.621
O=C(c1cc(Cc2n[nH]c(=O)c3ccccc23)ccc1F)N1CCN(C(=O)C2CC2)CC1 [Olaparib] + CN(CC[C@H](CSC1=CC=CC=C1)NC2=C(C=C(C=C2)S(=O)(=O)NC(=O)C3=CC=C(C=C3)N4CCC(CC4)[C@H](C5=CC=CC=C5C6=CC=C(C=C6)Cl)O)S(=O)(=O)C(F)(F)F)CCO [AZD4320] (first compound max 10 µM, 7x7, partner max 1 µM) | 1 | 0.86 | 0.512 | 0.969 | 0.104 | 0.206 | 0.37 | 0.216 | 0.668 | 0.108 | 0.974 | 0.114 | 0.147 | 0.631
Cc1cc2ncnn2cc1Nc1ncc2c(n1)n(C1CCOCC1)c(=O)n2C [AZD7648] + COc1cc([C@@H]2c3cc4c(cc3[C@@H](O[C@@H]3O[C@@H]5CO[C@@H](C)O[C@H]5[C@H](O)[C@H]3O)[C@H]3COC(=O)[C@H]23)OCO4)cc(OC)c1O [Etoposide] (first compound max 10 µM, 7x7, partner max 10 µM) | 0.551 | 0.923 | 0.844 | 0.977 | 0.711 | 0.956 | 0.368 | 0.855 | 0.842 | 0.665 | 1 | 0.649 | 0.574 | 0.581
Cc1c2c(nn1C)CSCc1cc(n(C)n1)CSc1cc(c3ccccc3c1)OCCCc1c(C(=O)O)n(C)c3c-2c(Cl)ccc13 [AZD5991] + CC(=O)O[C@H]1C(=O)[C@@]2(C)[C@H]([C@H](OC(=O)c3ccccc3)[C@]3(O)C[C@H](OC(=O)[C@H](O)[C@@H](NC(=O)c4ccccc4)c4ccccc4)C(C)=C1C3(C)C)[C@]1(OC(C)=O)CO[C@@H]1C[C@@H]2O [Paclitaxel] (first compound max 1 µM, 7x7, partner max 3 µM) | 0.399 | 0.796 | 0.963 | 0.958 | 0.77 | 0.932 | 0.283 | 0.977 | 0.498 | 0.416 | 0.969 | 0.734 | 0.776 | 0.993
C[C@@H](Oc1cc(-c2cnn(C3CCNCC3)c2)cnc1N)c1c(Cl)ccc(F)c1Cl [Crizotinib] + CC1=C(C(=CC=C1)Cl)NC(=O)C2=CN=C(S2)NC3=CC(=NC(=N3)C)N4CCN(CC4)CCO [Dasatinib] (first compound max 10 µM, 7x7, partner max 2 µM) | 0.354 | 1 | 0.437 | 0.883 | 0.881 | 0.875 | 0.731 | 0.303 | 0.94 | 0.821 | 0.942 | 0.734 | 0.829 | 0.499
C[C@@H]1COCCN1c1cc(C2([S@](C)(=N)=O)CC2)nc(-c2ccnc3[nH]ccc23)n1 [AZD6738] + Nc1ccn([C@@H]2O[C@H](CO)[C@@H](O)C2(F)F)c(=O)n1 [Gemcitabine] (first compound max 10 µM, 7x7, partner max 0.3 µM) | 0.459 | 0.965 | 1 | 0.991 | 0.873 | 1 | 0.656 | 0.925 | 0.858 | 0.716 | 0.974 | 0.841 | 0.731 | 0.747
N#Cc1cnc(Nc2cc(NC[C@H]3CNCCO3)c(C(F)(F)F)cn2)cn1 [SRA737] + Nc1ccn([C@@H]2O[C@H](CO)[C@@H](O)C2(F)F)c(=O)n1 [Gemcitabine] (first compound max 10 µM, 7x7, partner max 0.3 µM) | 0.391 | 0.97 | 0.972 | 0.989 | 0.853 | 1 | 0.557 | 0.905 | 0.838 | 0.738 | 0.954 | 0.765 | 0.626 | 0.78
CN(CCO)CC[C@H](CSc1ccccc1)Nc1ccc(S(=O)(=O)NC(=O)c2ccc(N3CCC([C@@H](O)c4ccccc4-c4ccc(Cl)cc4)CC3)cc2)cc1S(=O)(=O)C(F)(F)F [AZD4320] + CC(=O)O[C@H]1C(=O)[C@@]2(C)[C@H]([C@H](OC(=O)c3ccccc3)[C@]3(O)C[C@H](OC(=O)[C@H](O)[C@@H](NC(=O)c4ccccc4)c4ccccc4)C(C)=C1C3(C)C)[C@]1(OC(C)=O)CO[C@@H]1C[C@@H]2O [Paclitaxel] (first compound max 1 µM, 7x7, partner max 3 µM) | 1 | 1 | 1 | 1 | 0.885 | 0.999 | 0.803 | 0.86 | 0.984 | 0.777 | 1 | 0.892 | 0.837 | 0.966
C=CCn1c(=O)c2cnc(Nc3ccc(N4CCN(C)CC4)cc3)nc2n1-c1cccc(C(C)(C)O)n1 [AZD1775] + Nc1ccn([C@@H]2O[C@H](CO)[C@@H](O)C2(F)F)c(=O)n1 [Gemcitabine] (first compound max 1 µM, partner max 0.3 µM) | 0.411 | 0.952 | 0.923 | 0.983 | 0.884 | 1 | 0.506 | 0.917 | 0.78 | 0.68 | 0.958 | 0.818 | 0.581 | 0.765
C=CCn1c(=O)c2cnc(Nc3ccc(N4CCN(C)CC4)cc3)nc2n1-c1cccc(C(C)(C)O)n1 [AZD1775] + CCc1c2c(nc3ccc(O)cc13)-c1cc3c(c(=O)n1C2)COC(=O)[C@]3(O)CC [SN-38] (first compound max 1 µM, partner max 0.3 µM) | 0.542 | 1 | 0.999 | 0.997 | 0.929 | 0.975 | 0.431 | 0.967 | 0.916 | 0.737 | 1 | 0.751 | 0.712 | 0.715
CN(CCO)CC[C@H](CSc1ccccc1)Nc1ccc(S(=O)(=O)NC(=O)c2ccc(N3CCC([C@@H](O)c4ccccc4-c4ccc(Cl)cc4)CC3)cc2)cc1S(=O)(=O)C(F)(F)F [AZD4320] + Nc1ccn([C@@H]2O[C@H](CO)[C@@H](O)C2(F)F)c(=O)n1 [Gemcitabine] (first compound max 1 µM, 7x7, partner max 0.3 µM) | 1 | 1 | 0.965 | 0.997 | 0.733 | 1 | 0.473 | 0.674 | 0.662 | 0.873 | 1 | 0.482 | 0.151 | 0.857
Cc1nc(-c2cn3c(n2)-c2ccc(-c4cnn(C(C)(C)C(N)=O)c4)cc2OCC3)n(C(C)C)n1 [Taselisib] + O=C(Nc1ccc2[nH]nc(-c3ccncc3)c2c1)[C@@H]1CCN(CC(=O)N2CCN(c3ccc(-c4ncccn4)cc3)CC2)C1 [SCH772984] (first compound max 10 µM, 7x7, partner max 5 µM) | 0.238 | 0.599 | 0.977 | 0.726 | 0.965 | 0.73 | 0.583 | 0.418 | 0.834 | 0.659 | 0.752 | 0.629 | 0.72 | 0.787
N#Cc1cnc(Nc2cc(NC[C@H]3CNCCO3)c(C(F)(F)F)cn2)cn1 [SRA737] + C=CCn1c(=O)c2cnc(Nc3ccc(N4CCN(C)CC4)cc3)nc2n1-c1cccc(C(C)(C)O)n1 [AZD1775] (first compound max 10 µM, partner max 1 µM) | 0.299 |  | 0.682 | 0.829 | 0.827 | 0.825 | 0.392 | 0.955 | 0.807 | 0.441 | 0.969 | 0.674 | 0.77 | 0.599
C[C@@H]1COCCN1c1cc(C2([S@](C)(=N)=O)CC2)nc(-c2ccnc3[nH]ccc23)n1 [AZD6738] + C1CC(C1)(C(=O)[O-])C(=O)[O-].N.N.[Pt+2] [Carboplatin] (first compound max 10 µM, 7x7, partner max 10 µM) |  | 0.818 | 0.725 | 0.777 | 0.766 | 0.773 | 0.424 | 0.889 | 0.576 | 0.468 | 0.924 | 0.508 | 0.602 | 0.316
